As a reminder, the EC50 is the concentration at which the effect is half-maximal.

From patent US7381542B2, “Nucleic acids encoding a biogenic amine receptor” (Oregon Health & Science University, priority 2001, dated 2008) come the findings set out here.

Entries after “also recorded” stand apart in the source; their conditions may differ. Like-named read-outs stand apart in the source and are kept apart here.

One assay deals with T1, rat trace amine receptor (Rattus norvegicus, UniProt Q923Y9, L170Q/L53I/P183L/R211E/S15R).
T1 construct: expression vector containing the full-length rat cDNA clone described above; expressed in transfected cells
T1 sequence (Q923Y9 whole entry S15R/L53I/L170Q/P183L/R211E): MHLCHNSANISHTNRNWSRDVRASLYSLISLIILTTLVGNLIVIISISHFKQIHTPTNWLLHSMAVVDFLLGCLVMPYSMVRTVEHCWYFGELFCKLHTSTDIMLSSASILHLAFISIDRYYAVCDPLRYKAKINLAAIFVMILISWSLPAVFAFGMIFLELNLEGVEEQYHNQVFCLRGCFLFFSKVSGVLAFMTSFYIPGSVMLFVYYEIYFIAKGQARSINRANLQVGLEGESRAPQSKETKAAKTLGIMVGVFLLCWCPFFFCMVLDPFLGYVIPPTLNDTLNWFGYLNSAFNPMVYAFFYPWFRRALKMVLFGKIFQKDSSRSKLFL
Description: cell-based. It counts as cell-based. The note with it: for Emax: HEK293, percent of stimulation by p-tyramine, read-out: Maximal Stimulation (% ± SEM).

Assay [1] has as its system HEK 293 cells transfected with pcDNA3.1. Nature of the assay: MAP kinase pathway luciferase reporter in control HEK 293 cells transfected with pcDNA3.1 without receptor. It counts as cell-based, human. The note with it: compared with cells incubated in the absence of the ligand. An excerpt:
(§1) Control cells were transfected with pcDNA3.1 without the rat trace amine receptor sequences. All cells were also co-transfected with 2 additional constructs: one (elk-gal) that encoded the yeast transcription factor gal under the transcriptional control of an Elk-responsive promoter, and another encoding firefly luciferase under the transcriptional control of a gal-responsive promoter.
On the technique in general: Reporter assays use an easily measured gene product as a stand-in for the process of interest.

In assay [2] the target is T2, human trace amine receptor (Homo sapiens, UniProt Q96RJ0, S183L/Y279S).
T2 construct: expressed in transfected cells; host or cells: HEK 293 cells, pcDNA 3.1 vector (construct H2-3 pcDNA3.1)
T2 sequence (Q96RJ0 1-339 S183L/Y279S): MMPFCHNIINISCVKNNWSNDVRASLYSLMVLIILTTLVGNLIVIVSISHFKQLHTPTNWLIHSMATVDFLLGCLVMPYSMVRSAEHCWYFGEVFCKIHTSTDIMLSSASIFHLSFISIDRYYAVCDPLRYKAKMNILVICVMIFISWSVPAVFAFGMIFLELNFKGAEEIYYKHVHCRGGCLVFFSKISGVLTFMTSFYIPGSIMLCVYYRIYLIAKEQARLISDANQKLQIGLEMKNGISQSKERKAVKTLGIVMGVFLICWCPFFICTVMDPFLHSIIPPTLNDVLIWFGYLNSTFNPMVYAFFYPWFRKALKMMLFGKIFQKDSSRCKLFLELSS
Description: MAP kinase pathway (Elk-gal/luciferase reporter) stimulation in HEK 293 cells transfected with H2-3 pcDNA3.1. It counts as cell-based. The note with it: compared with cells incubated in the absence of the ligand; receptor-transfected HEK 293 cells.
Excerpt: as §1

Setting [3] is: Table III, cAMP, 1 hour at 37° C., 100 μM IBMX, read-out: EC50 (nM ± SEM).
[4] abbreviates: untitled table after Table III, first value column, read-out: EC50 (nM), NEUROTRANSMITTERS, first column.
Where [5] appears, read: untitled table after Table III, second value column, read-out: EC50 (nM), NEUROTRANSMITTERS, second column (no head of its own).
The mark [6] stands for this setting: untitled table after Table III, drugs, read-out: EC50 (nM), DRUGS.
[7] abbreviates: EC50 (nM), NEUROTRANSMITTERS, first column.
Where [8] appears, read: EC50 (nM), NEUROTRANSMITTERS, second column (no head of its own).

On to `NCCc1c[nH]c2ccccc12` [Tryptamine], for which the EC50 was 309 ± 76 nM at rat trace amine receptor (setting [3]), 248 nM on rat trace amine receptor (setting [4]) and 519 nM on rat trace amine receptor (setting [5]).

Take `COc1cc(C(O)CN)ccc1O` (stereo not drawn) [normetanephrine, 3-methoxy-β-4-dihydroxy-β-phenethylamine]: on rat trace amine receptor, the “potency relative to precursor catecholamines dopamine, norepinephrine, epinephrine” value is listed as “significantly more potent; also recorded: more potently activated”.

For `C=CCN1CCc2c(cc(O)c(O)c2Cl)C(c2ccccc2)C1` (centres unmarked) [SKF82958], the “fold stimulation (luciferase), pcDNA3.1” value in assay [1] is 0.79 fold.

Take `COc1cc(CCN)ccc1O` [3-methoxytyramine]: on rat trace amine receptor, the “potency relative to precursor catecholamines dopamine, norepinephrine, epinephrine” value is “significantly more potent; also recorded: more potently activated”.

Consider `CNCC(O)c1ccc(O)c(OC)c1` (stereo not drawn) [metanephrine, 3-methoxy-β-4-dihydroxy-N-methyl-β-phenethylamine], for which the “potency relative to precursor catecholamines dopamine, norepinephrine, epinephrine” value on rat trace amine receptor is reported as “significantly more potent; also recorded: more potently activated”.

Regarding `CNCC(O)c1ccc(O)cc1` (centres unmarked) [Synephrine], at rat trace amine receptor (setting [3]), the concentration for a half-maximal effect (EC50) is 584 ± 100 nM.

Regarding `NCCc1c[nH]c2ccc(O)cc12` [5-hydroxytryptamine], on rat trace amine receptor (Table III), the Emax amounted to 47 ± 9%. In addition, the EC50 on rat trace amine receptor (setting [3]) was determined as 12800 ± 4180 nM; at rat trace amine receptor (setting [4]), 1910 nM; at rat trace amine receptor (setting [5]), 8000 nM. Also, the “fold stimulation (luciferase), H2-3 pcDNA3.1” value in assay [2] is 1.22 fold. For the same compound, the “fold stimulation (luciferase), pcDNA3.1” value in assay [1] turned out to be 1 fold.

For the compound `N[C@@H](CCC(=O)O)C(=O)O` [glutamate], the “activation of the trace amine receptor (cAMP production), in words” value (from here on “activation of the trace amine receptor”) at rat trace amine receptor was “not activated”.

On to `COc1ccc(CCN)cc1` [p-methoxy PEA], for which, on rat trace amine receptor (setting [6]), the EC50 stood at 346 nM.

Consider `NCCc1ccccc1` [Phenethylamine, β-phenethylamine], for which the figures for the EC50 at rat trace amine receptor (setting [3]), at rat trace amine receptor (setting [4]) and on rat trace amine receptor (setting [5]) were 237 ± 71 nM, 218 nM and 124 nM, respectively.

For the compound `COc1cc(CC(=O)O)ccc1O` [homovanillic acid, 3-methoxy4-hydroxyphenylacetic acid], on rat trace amine receptor, the “activation of the trace amine receptor” value is reported as “no detectable activity”.

`NCCc1cccc(O)c1` [m-tyramine]: the EC50 on rat trace amine receptor (setting [3]) turned out to be 5370 ± 1180 nM; at rat trace amine receptor (setting [4]), 7190 nM; at rat trace amine receptor (setting [5]), 5800 nM.

In the case of `CN[C@H](C)Cc1ccccc1` [R-methamphetamine], the EC50 on rat trace amine receptor (setting [6]) was determined as 236 nM.

Regarding `CN[C@@H](C)Cc1ccccc1` [S-methamphetamine], the EC50 on rat trace amine receptor (setting [6]) is 188 nM.

For `CN1C[C@H](C(=O)N[C@]2(C)O[C@@]3(O)[C@@H]4CCCN4C(=O)[C@H](Cc4ccccc4)N3C2=O)C[C@@H]2c3cccc4[nH]cc(c34)C[C@H]21` [dihydroergotamine], on rat trace amine receptor (listed as dihydroergotsmnine), the “activation of the trace amine receptor” value is “stimulate camp production”.

Take `NCC(O)c1ccc(O)cc1` (centres unmarked) [Octopamine]: the EC50 at rat trace amine receptor (EC50 (nM ± SEM)) came out at 1300 ± 350 nM; on rat trace amine receptor (setting [7]) it was 874 nM; at rat trace amine receptor (setting [8]) it was 1400 nM.

Regarding `CN1CC=C(c2ccccc2)CC1` [MPTP, 1-methyl 4phenyl-1,2,3,6-tetrahydropyridine], the EC50 on rat trace amine receptor (setting [3]) was 99 ± 11 nM.

With `NCCc1ccc(O)cc1` [p-tyramine], the EC50 on rat trace amine receptor (EC50 (nM ± SEM)) came out at 69 ± 9 nM; on rat trace amine receptor (EC50 (nM), DRUGS), 20.2 nM; on rat trace amine receptor (setting [7]), 44.9 nM; on rat trace amine receptor (setting [8]), 82 nM. Besides, on rat trace amine receptor (Table III), the Emax was determined as 100%.
